# Assay results published in patent US12600698B2, “Kinase inhibitors” (Vidya Therapeutics, Inc., priority 2021, dated 2026).
# Key:
# BTK [1] = target: T1, BTK (Homo sapiens, UniProt Q06187); experiment: BTK IC50 (EZ reader kinase assay); type: biochemical; set-up: purchased Carna; conditions: ATP 1 mM, BTK 2 nM, 90 minutes at room temperature
# Procedure: Solutions of compounds (test or control) in DMSO were prepared at the desired concentrations, and serially diluted to 11 concentrations by 3-fold dilution in 384pp-plate using TECAN EVO200. 20 nL of stock were transferred to 384 plate using Echo550. DMSO was used as vehicle control.
# Two separate solutions were prepared—an ATP solution containing MgCl2 (10 mM), Brij-35 (0.01%), DTT (2 mM), BSA (0.05%), EGTA (1 mM), HEPE (pH7.5) (50 mM), FLPeptide (6 uM) and ATP (4 mM); and a BTK solution containing MgCl2 (10 mM), Brij-35 (0.01%), DTT (2 mM), BSA (0.05%), EGTA (1 mM), HEPE (pH7.5) (50 mM) and BTK (2.67 nM). (BTK was obtained from Carna; FLPeptide2 was obtained from PerkinElmer and Ibrutinib was obtained from Selleck.) 5 uL of ATP solution were added to each well, followed by addition of 15 uL of BTK solution to initiate the reaction. (Note the final volume of each well was 20 uL containing MgCl2 (10 mM), Brij-35 (0.01%), DTT (2 mM), BSA (0.05%), EGTA (1 mM), HEPE (pH7.5) (50 mM), FLPeptide (1.5 uM), ATP (1 mM) and BTK (2 nM). The plates were incubated at room temperature for 90 minutes and then stopping buffer added (75 uL, containing 0.5 M EDTA) to terminate the reaction. Samples from each well were analyzed using EZ reader.
# The % remaining activity was calculated using read conversion ratio (CR) according to the equation: […]
# XLFit (equation 201) was used to calculate IC50's by floating both bottom and top.
# BTK IC50 values are provided in Table 5, for the compounds described in Examples 1-13, wherein: • “A” denotes an IC50<1 nM; • “B” denotes an IC50 1-10 nM; and • “C” denotes an IC50>10 nM.
# BTK [2] = target: T1, BTK; experiment: Assay to determine BTK inactivation rate (active site probe ELISA, human whole blood); type: cell-based; set-up: tissue StemExpress; host or cells: human whole blood; conditions: 37° C., 5-60 minutes, read-out: BTK hWB (Kinact/Ki)
# Procedure: This example employed a BTK active site probe-based assay using a biotinylated covalent inhibitor in human and mouse blood or mouse brain lysate.
# Human whole blood was obtained from StemExpress (Stockton, CA) and kept at ambient temperature until the time of the experiment, which was approximately 24 hours after it had been collected. • 1. A 1× lysis buffer was prepared by using 10× lysis buffer (Cell Signaling Technology, #9083S, Danvers, MA), molecular biology grade water, 100× Halt Protease and Phosphatase Inhibitor Cocktail, (ThermoFisher, #78440, Waltham, MA), and BTK active site probe (final: 0.4 μM). This was prepared fresh each experimental day. • 2. Lysis buffer was added in the volume of 30 μL to all wells in a V-bottom plate (Greiner Bio-One, #651261, Monroe, NC) in preparation for timepoint collections. • 3. Compounds were reconstituted to stocks of 10 mM in 100% DMSO and were diluted in 2-fold serial dilutions to generate an 8-point curve in DMSO, with the last point being DMSO only. • 4. A working 10× dilution series was created using 1 μL of the prepared DMSO titration into […] 1×PBS in order to keep the DMSO constant (0.03% DMSO final). • 5. The whole blood was added in the volume of 225 μL per well in a new 96 w v-bottom plate. • 6. For compound treatment, 25 μL of the 10× dilution series in PBS was added to the 225 μL whole blood, followed by briefly pipetting up and down, twice. • 7. The plates were then covered with plastic lids and incubated at 37° C. for 5, 10, 15, 30, 60 minutes. • 8. At each timepoint, 30 μL of compound- or DMSO (vehicle)-treated blood is pulled from each column and added to preloaded collection plates that contained 30 μL of lysis buffer supplemented with BTK active site probe. Samples were then mixed briefly by pipetting up and down, twice. • 9. The plates with collected and lysed samples were shaken and covered with sealing film on a rotator for 60 minutes at room temperature. These samples were used fresh for detection via ELISA, and remaining sample was frozen at −80° C. if a repeat was necessary. Determining Amount of Unoccupied BTK Using ELISA • 1. All streptavidin pre-coated plates (R&D Systems, #CP004, Minneapolis, MN) were brought to room temperature while samples are lysing. • 2. Assay Buffer 1, 1×PBS+0.05% Tween 20+1% BSA was prepared, filtered, and stored at 4° C. when not in use. • 3. Using this Assay Buffer 1, assay buffer+1× protease/phosphatase inhibitor cocktail (PICS) was prepared in the amount needed for all samples. • 4. Assay Buffer+PICS in the volume of 90 μL/well was added to the ELISA plate for blood samples. • 5. Assay Buffer+PICs in the volume of 50 μL/well was added to the ELISA plate for brain samples. • 6. Lysed blood sample (10 μL) was added to the ELISA plate. • 7. Lysed brain sample (50 μL) was added to the ELISA plate. • 8. Samples were loaded into the ELISA plate for a total of 100 μL/well, in duplicate, and remained in the plate, sealed, overnight at 4° C. • 9. The following day, the plate was washed three times with 1× Wash Buffer (1×PBS+0.05% Tween 20) at 250 μL/well using a plate washer. • 10. The plate was inverted to expel all fluid each time and blotted on clean paper towels to remove remaining liquid. • 11. Assay Buffer 2 was prepared (1×PBS+0.05% Tween 20+0.5% BSA) and kept at 4° C. when not in use. • 12. The primary antibody α-BTK (clone D3H5, Cell Signaling Technology #8547S Danvers, MA) was diluted 1:500 in Assay Buffer 2. • 13. Diluted a-BTK antibody was added at 100 μL/well. • 14. The plate was covered with adhesive film and incubated for 90 minutes at room temperature. • 15. The plate was washed three times with 1× Wash Buffer at 250 μL/well using a plate washer. • 16. The plate was inverted to expel all fluid each time and blotted on clean paper towels to remove remaining liquid. • 17. The detection antibody (Jackson Immuno Research, #711-005-152) was diluted 1:2,500 with Assay Buffer 2. • 18. The diluted antibody was added at 100 μL/well. • 19. […]
# T1 sequence (Q06187 whole entry): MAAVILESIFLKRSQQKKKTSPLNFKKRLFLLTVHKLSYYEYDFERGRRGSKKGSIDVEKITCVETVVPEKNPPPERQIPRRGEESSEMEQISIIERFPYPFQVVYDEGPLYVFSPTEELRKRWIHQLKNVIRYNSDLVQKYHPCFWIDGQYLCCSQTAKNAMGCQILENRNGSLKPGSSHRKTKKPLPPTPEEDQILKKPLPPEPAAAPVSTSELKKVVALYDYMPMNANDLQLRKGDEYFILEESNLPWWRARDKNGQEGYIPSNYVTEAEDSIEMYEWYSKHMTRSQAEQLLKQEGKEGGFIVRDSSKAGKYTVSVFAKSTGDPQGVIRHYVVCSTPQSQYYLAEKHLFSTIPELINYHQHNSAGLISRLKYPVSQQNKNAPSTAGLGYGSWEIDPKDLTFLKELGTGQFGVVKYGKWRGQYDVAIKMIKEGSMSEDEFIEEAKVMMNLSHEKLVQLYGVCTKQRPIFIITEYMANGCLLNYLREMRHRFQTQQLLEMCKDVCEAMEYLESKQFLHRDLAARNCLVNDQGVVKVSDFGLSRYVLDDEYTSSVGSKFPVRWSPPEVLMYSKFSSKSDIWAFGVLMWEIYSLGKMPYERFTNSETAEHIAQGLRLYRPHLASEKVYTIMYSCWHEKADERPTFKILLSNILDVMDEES
SMILES,IC50 (BTK [1]) [nM],kinact/KI (BTK [2]) [M⁻¹ s⁻¹]
"CC#CC(=O)N[C@@H]1C=C(c2c(F)cc(C(N)=O)c3[nH]c(C)c(C)c23)CCC1 [3B(S), (S)-4-(3-(but-2-ynamido)cyclohex-1-en-1-yl)-5-fluoro-2,3-dimethyl-1H-indole-7-carboxamide]",1 to 10,> 16700
"CC#CC(=O)N[C@@H]1C=C(c2c(F)cc(C(N)=O)c3[nH]c(C)c(Cl)c23)CCC1 [5B(S), (S)-4-(3-(but-2-ynamido)cyclohex-1-en-1-yl)-3-chloro-5-fluoro-2-methyl-1H-indole-7-carboxamide]",1 to 10,< 8330
"CC#CC(=O)N[C@H]1CCC[C@@H](c2c(F)cc(C(N)=O)c3[nH]c(C)c(Cl)c23)C1 [6-(1R,3S), 4-((1R,3S)-3-(but-2-ynamido)cyclohexyl)-3-chloro-5-fluoro-2-methyl-1H-indole-7-carboxamide]",1 to 10,< 8330
"CC#CC(=O)N[C@H]1CCC[C@H](c2c(F)cc(C(N)=O)c3[nH]c(C)c(Cl)c23)C1 [6-(1S,3S), 4-((1S,3S)-3-(but-2-ynamido)cyclohexyl)-3-chloro-5-fluoro-2-methyl-1H-indole-7-carboxamide]",1 to 10,8330 to 16700
"CC#CC(=O)N[C@H]1CCC[C@H](c2c(F)cc(C(N)=O)c3[nH]c(C)c(C)c23)C1 [10-(1S,3S), 4-((1S,3S)-3-(but-2-ynamido)cyclohexyl)-5-fluoro-2,3-dimethyl-1H-indole-7-carboxamide]",1 to 10,< 8330
"CC#CC(=O)N[C@@H]1CCC[C@@H](c2c(F)c(F)c(C(N)=O)c3[nH]c(C)c(Cl)c23)C1 [11-(1R,3R), 4-[(1R,3R)-3-(but-2-ynoylamino)cyclohexyl]-3-chloro-5,6-difluoro-2-methyl-1H-indole-7-carboxamide]",1 to 10,< 8330
"CC#CC(=O)N[C@H]1CC[C@@H](c2c(F)cc(C(N)=O)c3[nH]c(C)c(C)c23)C1 [12-(1R,3S), 4-((1R,3S)-3-(but-2-ynamido)cyclopentyl)-5-fluoro-2,3-dimethyl-1H-indole-7-carboxamide]",1 to 10,< 8330
"CC#CC(=O)N[C@@H]1CCC[C@@H](c2c(F)c(F)c(C(N)=O)c3[nH]c(C)c(C#N)c23)C1 [Compound 7-(1R,3R), 4-((1R,3R)-3-(but-2-ynamido)cyclohexyl)-3-cyano-5,6-difluoro-2-methyl-1H-indole-7-carboxamide]",1 to 10,8330 to 16700
"CC#CC(=O)N[C@H]1CCC[C@@H](c2c(F)c(F)c(C(N)=O)c3[nH]c(C)c(C#N)c23)C1 [Compound 7-(1R,3S), 4-((1R,3S)-3-(but-2-ynamido)cyclohexyl)-3-cyano-5,6-difluoro-2-methyl-1H-indole-7-carboxamide]",1 to 10,< 8330
"CC#CC(=O)N[C@H]1CCC[C@@H](c2c(F)c(F)c(C(N)=O)c3[nH]c(C)c(Cl)c23)C1 [Compound 11-(1R,3S), 4-((1R,3S)-3-(but-2-ynamido)cyclohexyl)-3-chloro-5,6-difluoro-2-methyl-1H-indole-7-carboxamide]",1 to 10,< 8330
"CC#CC(=O)N[C@@H]1CC[C@@H](c2c(F)cc(C(N)=O)c3[nH]c(C)c(C)c23)C1 [Compound 13-(1R,3R), 4-((1R,3R)-3-(but-2-ynamido)cyclopentyl)-5-fluoro-2,3-dimethyl-1H-indole-7-carboxamide]",1 to 10,< 8330

# Continued, values first:
IC50 (BTK [1]) [nM],kinact/KI (BTK [2]) [M⁻¹ s⁻¹],SMILES
1 to 10,< 8330,"CC#CC(=O)N[C@@H]1CCC=C(c2c(F)cc(C(N)=O)c3[nH]c(C)c(Cl)c23)C1 [1A(R), (R)-4-(5-(but-2-ynamido)cyclohex-1-en-1-yl)-3-chloro-5-fluoro-2-methyl-1H-indole-7-carboxamide]"
< 1,< 8330,"CC#CC(=O)N[C@H]1CCC=C(c2c(F)cc(C(N)=O)c3[nH]c(C)c(Cl)c23)C1 [1A(S), (S)-4-(5-(but-2-ynamido)cyclohex-1-en-1-yl)-3-chloro-5-fluoro-2-methyl-1H-indole-7-carboxamide]"
1 to 10,< 8330,"CC#CC(=O)N[C@@H]1CCC=C(c2c(F)c(F)c(C(N)=O)c3[nH]c(C)c(Cl)c23)C1 [2A(R), (R)-4-(5-(but-2-ynamido)cyclohex-1-en-1-yl)-3-chloro-5,6-difluoro-2-methyl-1H-indole-7-carboxamide]"
< 1,> 16700,"CC#CC(=O)N[C@H]1CCC=C(c2c(F)c(F)c(C(N)=O)c3[nH]c(C)c(Cl)c23)C1 [2A(S), (S)-4-(5-(but-2-ynamido)cyclohex-1-en-1-yl)-3-chloro-5,6-difluoro-2-methyl-1H-indole-7-carboxamide]"
< 1,> 16700,"CC#CC(=O)N[C@H]1CCC=C(c2c(F)cc(C(N)=O)c3[nH]c(C)c(C)c23)C1 [3A(S), (S)-4-(5-(but-2-ynamido)cyclohex-1-en-1-yl)-5-fluoro-2,3-dimethyl-1H-indole-7-carboxamide]"
